Experimental data taken from US20160220569A1, “CDK4/6 Inhibitor Dosage Formulations For The Protection Of Hematopoietic Stem And Progenitor Cells During Chemotherapy” (G1 Therapeutics, Inc., priority 2015, published 2016).
“And” between values parts separate entries of the source, which are not always exact repeats. Identical values can stand only once. Like-named read-outs stand apart in the source and are kept apart here.

Columns and labels:
[1] = 14-day toxicokinetic study in dogs; type: in vivo, dogs (Beagle); conditions: male and female dogs
Procedure: Dogs in the control group were not exposed to Compound 1 and so were a true control group.
The required weight of Compound 1 di-HCl was added to an appropriate size vessel. […] The vessel was placed on a stirring hotplate and the formulation heated to a temperature of 30-35° C. The contents of the vessel were allowed to stir at 30-35° C. or a stir plate until all test article appeared to be dissolved, and for a period of at least 1 hour. The pH of the formulation was verified and adjusted to 4.0-4.5 using 1N HCl or 1N NaOH as required. The formulation was transferred into an appropriate size graduated cylinder. Sufficient vehicle control will be added to the cylinder to obtain the final desired concentration of formulated test article. The completed stock formulation was dispensed into several amber glass bottles as aliquots for each day of dosing. These formulations were stored at controlled room temperature (15-30° C.) until used for dose administration.
The beagle dog was chosen for this study as it is a species that is used for non-clinical toxicity and pharmacokinetic evaluations and satisfies the regulatory requirement for non-clinical safety studies in a non-rodent species. […]

bone marrow cells = test: Bone marrow EdU incorporation (S-phase) after single dose in dogs; type: in vivo; conditions: increasing single doses, 8 and 16 hours
[2] = Red blood cell and neutrophil counts after single dose in dogs; type: in vivo; conditions: out to 15 days
[3] = tested on: NCI-H69 mice small cell lung cancer (SCLC) xenograft; test: NCI-H69 small cell lung cancer xenograft study; type: in vivo
From the text: FIG. 61 is a graph of tumor size (cubic millimeters) vs time (days) for a small cell lung cancer xenograft model with various dosing regimens.

[4] = Compound 1 PK dosed Days 1-3 with etoposide and carboplatin; type: in vivo, human
Procedure: Analysis of plasma concentration versus time data for calculation of standard pharmacokinetic (PK) parameters following intravenous infusion administration was conducted using Phoenix WinNonlin version 6.3 using a nominal infusion duration and scheduled blood sampling times.

Target lesions [5] = test: Tumor response, Compound 1 with etoposide and carboplatin; type: in vivo, human; parameters: Cycle 2 Target Lesion Sum / Cycle4 Target Lesion Sum / Cycle 6 Target Lesion Sum: unit not given here
From the text: As shown in FIG. 64 all 6 patients had at least partial responses during the course of 2 to 6 cycles of chemotherapy. Target lesions were summed and response tabulated as follows: […]

Target lesions [6] = test: Tumor response, Compound 1 with topotecan; type: in vivo, human; conditions: for Cycle 2 Target Lesion Sum: individual subjects
Procedure: In Cohort 2 there were 3 subjects who received 1.25 mg/m^2 of topotecan once daily on Days 1 to 5. In Cohort 3 there were 4 subjects who received 0.75 mg/m^2 of topotecan once daily on Days 1 to 5. […] Target lesions were summed and response tabulated as follows: […]

[7] = Nonclinical IV and oral pharmacokinetics in dogs; type: in vivo; conditions: dog, plasma
[8] = Repeat-dose toxicity in rats (IV 7 days, oral 14 days); type: in vivo
Procedure: The magnitude and/or duration of this effect differed among cell lineages but was dose-related in all lineages. Effects on hematopoiesis were readily monitored by peripheral blood cell counts and were reversible when dosing stopped.
In both species, the toxicity profile was similar and the repeat-dose toxicity studies identified no observed adverse effect levels (NOAELs). […] This IV NOAEL was the basis for selecting a starting dose of 6 mg/m^2 for the first clinical trial, which is 1/10th of the lowest safe dose level in any animal study.
In rats, the toxicity profile with oral administration was similar to that with IV administration, except that pulmonary macrophage accumulation occurred with oral administration for 14 days at ≧5 mg/kg (≧30 mg/m^2) but not with IV administration for 7 days at up to 25 mg/kg (≧150 mg/m^2). Based on this finding, the oral NOAEL was 2 mg/kg (≧12 mg/m^2).

CDK4/6 = CDK4/6 inhibition in vitro and in vivo studies
[9] = 200 mg/m^2 with Etoposide and Carboplatin, Day 1, Max
[10] = 200 mg/m^2 with Etoposide and Carboplatin, Day 1, Min
[11] = 200 mg/m^2 with Etoposide and Carboplatin, Day 1, individual subjects
[12] = 200 mg/m^2 with Etoposide and Carboplatin, Day 3, Max
[13] = 200 mg/m^2 with Etoposide and Carboplatin, Day 3, Min
[14] = 200 mg/m^2 with Etoposide and Carboplatin, Day 3, individual subjects
[15] = Compound 1 200 mg/m^2 followed by etoposide and carboplatin, individual subjects
[16] = Compound 1 200 mg/m^2 with topotecan, 2 to 4 cycles

CN1CCN(c2ccc(Nc3ncc4cc5n(c4n3)C3(CCCCC3)CNC5=O)nc2)CC1 [Compound 1, 2′-((5-(4-methylpiperazin-1-yl)pyridin-2-yl)amino)-7′,8′-dihydro-6′H-spiro[cyclohexane-1,9′-pyrazino[1′,2′:1,5]pyrrolo[2,3-d]pyrimidin]-6′-one]
systemic exposure with increasing dose level [1]: increased roughly proportionally | bone marrow cells in S phase (bone marrow cells): decrease in the number of cells in S phase | effect on red blood cells and neutrophils [2]: minimal | tumor growth suppression ([3]; Compound 1 100 mg/kg qdx5dx4, absence of Topotecan): did not have tumor grown suppression | tumor suppression vs Topotecan alone ([3]; Compound 1 10, 50 or 100 mg/kg with Topotecan 0.6 mg/kg): significantly higher level of tumor suppression | AUCinf [4, 9]: 3320 ng·h/mL | Cmax [4, 9]: 2170 ng/mL | t½ [4, 9]: 10.6 h | AUC24.5 [4, 10]: 1530 ng·h/mL | AUCinf [4, 10]: 1650 ng·h/mL | Cmax [4, 10]: 587 ng/mL | t½ [4, 10]: 6.29 h | AUC24.5 [4, 11]: 2850 ng·h/mL and 1930 ng·h/mL and 2010 ng·h/mL and 2520 ng·h/mL and 1530 ng·h/mL | AUCinf [4, 11]: 2960 ng·h/mL and 3320 ng·h/mL and 2290 ng·h/mL and 2680 ng·h/mL and 1650 ng·h/mL | Cmax [4, 11]: 2170 ng/mL and 742 ng/mL and 845 ng/mL and 1840 ng/mL and 587 ng/mL | t½ [4, 11]: 8.94 h and 10.6 h and 8.91 h and 7.09 h and 7.28 h | AUCτ [4, 12]: 3300 ng·h/mL | Cmax [4, 12]: 3360 ng/mL | AUCτ [4, 13]: 2010 ng·h/mL | Cmax [4, 13]: 355 ng/mL | t½ [4, 13]: 6.99 h | AUCτ [4, 14]: 3300 ng·h/mL and 2010 ng·h/mL and 2630 ng·h/mL and 2610 ng·h/mL and 2890 ng·h/mL | Cmax [4, 14]: 723 ng/mL and 355 ng/mL and 1190 ng/mL and 3360 ng/mL | pre-dose concentration averaging ([4]; Day 3, mean): 20.6 ng/mL | AUC ([4]; human, plasma, intravenous, 200 mg/m2, 200 mg/m^2 with Etoposide and Carboplatin, Day 1, Geo. Mean, read-out: AUC24.5): 2230 ng·h/mL | AUC(0-inf) ([4]; human, plasma, intravenous, 200 mg/m2, 200 mg/m^2 with Etoposide and Carboplatin, Day 1, Geo. Mean, read-out: AUCinf): 2470 ng·h/mL | Cmax ([4]; human, plasma, intravenous, 200 mg/m2, 200 mg/m^2 with Etoposide and Carboplatin, Day 1, Geo. Mean, read-out: Cmax): 1070 ng/mL | half-life ([4]; human, plasma, intravenous, 200 mg/m2, 200 mg/m^2 with Etoposide and Carboplatin, Day 1, Geo. Mean, read-out: t½ (converted)): 484 min | AUC(0-inf) ([4]; human, plasma, intravenous, 200 mg/m2, 200 mg/m^2 with Etoposide and Carboplatin, Day 1, Mean, read-out: AUCinf): 2530 ng·h/mL | Cmax ([4]; human, plasma, intravenous, 200 mg/m2, 200 mg/m^2 with Etoposide and Carboplatin, Day 1, Mean, read-out: Cmax): 1200 ng/mL | half-life ([4]; human, plasma, intravenous, 200 mg/m2, 200 mg/m^2 with Etoposide and Carboplatin, Day 1, Mean, read-out: t½ (converted)): 491 min | AUC ([4]; human, plasma, intravenous, 200 mg/m2, 200 mg/m^2 with Etoposide and Carboplatin, Day 1, Median, read-out: AUC24.5): 2270 ng·h/mL | AUC(0-inf) ([4]; human, plasma, intravenous, 200 mg/m2, 200 mg/m^2 with Etoposide and Carboplatin, Day 1, Median, read-out: AUCinf): 2490 ng·h/mL | Cmax ([4]; human, plasma, intravenous, 200 mg/m2, 200 mg/m^2 with Etoposide and Carboplatin, Day 1, Median, read-out: Cmax): 923 ng/mL | half-life ([4]; human, plasma, intravenous, 200 mg/m2, 200 mg/m^2 with Etoposide and Carboplatin, Day 1, Median, read-out: t½ (converted)): 485 min | AUC ([4]; human, plasma, intravenous, 200 mg/m2, 200 mg/m^2 with Etoposide and Carboplatin, Day 1, individual subjects, read-out: AUC24.5): 2860 ng·h/mL | half-life ([4]; human, plasma, intravenous, 200 mg/m2, 200 mg/m^2 with Etoposide and Carboplatin, Day 1, individual subjects, read-out: t½ (converted)): 377 min | AUC ([4]; human, plasma, intravenous, 200 mg/m2, 200 mg/m^2 with Etoposide and Carboplatin, Day 3, Geo. Mean, read-out: AUCτ): 2530 ng·h/mL | Cmax ([4]; human, plasma, intravenous, 200 mg/m2, 200 mg/m^2 with Etoposide and Carboplatin, Day 3, Geo. Mean, read-out: Cmax): 1090 ng/mL | half-life ([4]; human, plasma, intravenous, 200 mg/m2, 200 mg/m^2 with Etoposide and Carboplatin, Day 3, Geo. Mean, read-out: t½ (converted)): 537 min | AUC ([4]; human, plasma, intravenous, 200 mg/m2, 200 mg/m^2 with Etoposide and Carboplatin, Day 3, Mean, read-out: AUCτ): 2570 ng·h/mL | Cmax ([4]; human, plasma, intravenous, 200 mg/m2, 200 mg/m^2 with Etoposide and Carboplatin, Day 3, Mean, read-out: Cmax): 1380 ng/mL | half-life ([4]; human, plasma, intravenous, 200 mg/m2, 200 mg/m^2 with Etoposide and Carboplatin, Day 3, Mean, read-out: t½ (converted)): 542 min | AUC ([4]; human, plasma, intravenous, 200 mg/m2, 200 mg/m^2 with Etoposide and Carboplatin, Day 3, Median, read-out: AUCτ): 2620 ng·h/mL | Cmax ([4]; human, plasma, intravenous, 200 mg/m2, 200 mg/m^2 with Etoposide and Carboplatin, Day 3, Median, read-out: Cmax): 1100 ng/mL | half-life ([4]; human, plasma, intravenous, 200 mg/m2, 200 mg/m^2 with Etoposide and Carboplatin, Day 3, Median, read-out: t½ (converted)): 549 min | half-life ([4]; human, plasma, intravenous, 200 mg/m2, 200 mg/m^2 with Etoposide and Carboplatin, Day 3, individual subjects, read-out: t½ (converted)): 556 min | AUC(0-inf) ([4]; human, plasma, intravenous, 200 mg/m2, 200 mg/m^2 with etoposide and carboplatin, Day 1, mean, read-out: AUCinf averaged): 2530 ng·h/mL | Cmax ([4]; human, plasma, intravenous, 200 mg/m2, 200 mg/m^2 with etoposide and carboplatin, Day 1, mean, read-out: Cmax averaged): 1200 ng/mL | half-life ([4]; human, plasma, intravenous, 200 mg/m2, 200 mg/m^2 with etoposide and carboplatin, Day 1, mean, read-out: Half-lives averaged (converted)): 491 min | half-life ([4]; human, plasma, intravenous, 200 mg/m2, 200 mg/m^2 with etoposide and carboplatin, Day 1, range, read-out: Half-lives range): 377 to 636 min | AUC ([4]; human, plasma, intravenous, 200 mg/m2, 200 mg/m^2 with etoposide and carboplatin, Day 3, mean, read-out: AUCτ averaged): 2570 ng·h/mL | Cmax ([4]; human, plasma, intravenous, 200 mg/m2, 200 mg/m^2 with etoposide and carboplatin, Day 3, mean, read-out: Cmax averaging): 1380 ng/mL | half-life ([4]; human, plasma, intravenous, 200 mg/m2, 200 mg/m^2 with etoposide and carboplatin, Day 3, mean, read-out: Half-lives averaged (converted)): 542 min | half-life ([4]; human, plasma, intravenous, 200 mg/m2, 200 mg/m^2 with etoposide and carboplatin, Day 3, range, read-out: Half-lives range): 419 to 660 min | concentration at 24.5 h ([4]; human, plasma, intravenous, Day 1, 4 subjects, mean, read-out: concentration at 24.5 hours after the start of infusion, averaging): 20 ng/mL | concentration at 24.5 h ([4]; human, plasma, intravenous, Day 1, 4 subjects, range, read-out: concentration at 24.5 hours after the start of infusion, range): 11.3 to 35.9 ng/mL | concentration at 24.5 h ([4]; human, plasma, intravenous, Day 3, mean, read-out: concentration at 24.5 hours after dosing, averaged): 24.6 ng/mL | concentration at 24.5 h ([4]; human, plasma, intravenous, Day 3, range, read-out: concentration at 24.5 hours after dosing, range): 11.5 to 34.5 ng/mL | Cycle 2 Target Lesion Sum (Target lesions [5]; [15]): 74 and 22 and 76 and 161 and 50 and 35 | Cycle4 Target Lesion Sum (Target lesions [5]; [15]): 54 and 0 (2×) and 62 and 146 | Cycle 6 Target Lesion Sum (Target lesions [5]; [15]): 47 and 0 | patients with at least partial responses (Target lesions [5]; Compound 1 200 mg/m^2 with etoposide and carboplatin, 2 to 6 cycles, 6 patients): 6 patients | Cycle 2 Target Lesion Sum (Target lesions [6]; Compound 1 200 mg/m^2 followed by 1.25 mg/m^2 Topotecan): 22 and 123 | Cycle 2 Target Lesion Sum (Target lesions [6]; Compound 1 200 mg/m^2 followed by .75 mg/m^2 Topotecan): 157 | subjects with partial responses (Target lesions [6]; [16]): 3 subjects | subjects with stable disease (Target lesions [6]; [16]): 3 subjects | half-life ([7]; both sexes, after IV administration): ~240 min | bioavailability ([7]; oral 10 mg/kg): 30.2% | bioavailability ([7]; oral 90 mg/kg): 17.1% | dose with clinically significant leukopenia ([8]; 7 days): ≥ 150 mg/m^2 | dose with pulmonary macrophage accumulation ([8]; oral administration for 14 days): ≥ 5 mg/kg | NOAEL at 7 days ([8]; rat, in vivo, IV, read-out: NOAEL for IV administration): 10 mg/kg | NOAEL at 14 days ([8]; rat, in vivo, oral): 2 mg/kg | CDK4/6 inhibitor characterisation (CDK4/6): highly potent and selective CDK4/6 inhibitor
